Test results reported in the NIST ThermoML archive (doi:10.1016/j.fluid.2018.01.030).

Key:
[1] = 101.33 kPa, Liquid; for viscosity: Capillary tube (Ostwald / Ubbelohde) method; for mass density: Pycnometric method
[2] = wn = mass fraction of the nth substance listed; details: for viscosity / mass density: 101 kPa, Liquid; for viscosity: Capillary tube (Ostwald / Ubbelohde) method; for mass density: Pycnometric method; for surface tension liquid-gas: Pendant drop shape

NCCN1CCNCC1 [N-(β-aminoethyl)piperazine)]
[1]
Details | mass density [kg/m3] | viscosity [mPa·s]
303.2 K | 981.129 | 14.18
313.2 K | 977.356 | 8.669
323.2 K | 973.989 | 5.626
333.2 K | 969.461 | 4.481
343.2 K | 965.122 | 3.697

CN(CCO)CCO [N-methyldiethanolamine] + O
[2]
Details | mass density, 303.2 K [kg/m3] | mass density, 313.2 K [kg/m3] | mass density, 323.2 K [kg/m3] | mass density, 333.2 K [kg/m3] | viscosity, 303.2 K [mPa·s] | viscosity, 313.2 K [mPa·s] | viscosity, 323.2 K [mPa·s] | viscosity, 333.2 K [mPa·s]
w1 = 0.1 | 1003.8 | 999.5 | 995.2 | 990.5 | 1.164 | 0.912 | 0.752 | 0.635
w1 = 0.2 | 1012.4 | 1008.4 | 1003.5 | 998.6 | 1.635 | 1.314 | 1.06 | 0.867
w1 = 0.3 | 1024.5 | 1019.5 | 1015.2 | 1008.2 | 2.634 | 1.946 | 1.517 | 1.219

OCCNCCO [diethanolamine] + O
surface tension liquid-gas [mN/m], [2]
Details | 313.2 K | 323.2 K | 333.2 K
w1 = 0.1 | 60.42 | 59.18 | 58.85
w1 = 0.2 | 63.07 | 62.23 | 60.56
w1 = 0.3 | 61.57 | 60.13 | 58.43
